This is an account of results in patent US10870638B2, “Pyridazinone compound or its salt, and herbicide containing it” (ISHIHARA SANGYO KAISHA, LTD., priority 2016, dated 2020).

What all share (assay type): in vivo
For experiment [1], the system named is barnyardgrass (Echinochloa crus-qalli L.). Put plainly: Test Example 1: foliar treatment, growth inhibition rate on 14th day. Conditions: active ingredient amount 31 g/ha, 14th day after application, visual, 0 = non-treated, 100 = complete kill. The method, boiled down:
(§1)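 Using a small sprayer, formulated compound in water (0.1 vol % surfactant, 1,000 L/ha) was applied to seedlings grown from seed in upland soil. Fourteen days on, growth state was observed and expressed as percent inhibition from 0 to 100.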

Experiment [2] relates to corn (Zea mays L.). Described as above. Conditions: active ingredient amount 31 g/ha, 14th day after application, visual, 0 = non-treated, 100 = complete kill. In a few lines: as §1
In experiment [3] the test system is crabgrass (Digitaria sanquinalis L.). Described as above. Conditions: active ingredient amount 31 g/ha, 14th day after application, visual, 0 = non-treated, 100 = complete kill. In a few lines: as §1
For experiment [4], the system named is green foxtail (Setaria viridis L.). The description is as above. Conditions: active ingredient amount 31 g/ha, 14th day after application, visual, 0 = non-treated, 100 = complete kill. In a few lines:
(§2)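 Growth inhibition rates (%) come from visual observation on the 14th day following a single foliar application. Soybean was sprayed at the primary leaf stage, rice at 0.2–2.7 leaves, wild oat at 0.4–1.2, green foxtail at 0.5–3.2.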

Experiment [5] deals with italian ryegrass (Lolium multiflorum Lam.). The experiment is described as above. Conditions: active ingredient amount 31 g/ha, 14th day after application, visual, 0 = non-treated, 100 = complete kill. In a few lines:
as §1

In experiment [6] the test system is redroot pigweed (Amaranthus retroflexus L.). Described as above. Conditions: active ingredient amount 31 g/ha, 14th day after application, visual, 0 = non-treated, 100 = complete kill. The method, boiled down:
as §1

The test system of experiment [7] is rice (Oryza sativa L.). The description is as above. Conditions: active ingredient amount 31 g/ha, 14th day after application, visual, 0 = non-treated, 100 = complete kill. In a few lines:
as §2

For experiment [8], the system named is soybean (Glycine max Merr.). The experiment is described as above. Conditions: active ingredient amount 31 g/ha, 14th day after application, visual, 0 = non-treated, 100 = complete kill. The method, boiled down:
as §2

Experiment [9] has as its system wheat (Triticum aestivum L.). Described as above. Conditions: active ingredient amount 31 g/ha, 14th day after application, visual, 0 = non-treated, 100 = complete kill. In a few lines: as §1
Experiment [10] relates to wild oat (Avena fatua L.). The experiment is described as above. Conditions: active ingredient amount 31 g/ha, 14th day after application, visual, 0 = non-treated, 100 = complete kill. In a few lines: as §2
Experiment [11] concerns barnyardgrass (Echinochloa crus-qalli L.). Put plainly: Test Example 2: soil application on the day after sowing, growth inhibition rate on 14th day. Conditions: active ingredient amount 31 g/ha, 14th day after application. The method, boiled down:
(§3)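 Pre-emergence soil spray, day after sowing; WP or EC formulations diluted to 1,000 L/ha water at set a.i. rates. Visual growth inhibition %, 0 = untreated, 100 = complete kill, read at day 14.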

Experiment [12] relates to corn (Zea mays L.). The experiment is described as above. Conditions: active ingredient amount 31 g/ha, 14th day after application. The method, boiled down: as §3
In experiment [13] the test system is crabgrass (Digitaris sanquinalis L.). The description is as above. Conditions: active ingredient amount 31 g/ha, 14th day after application. In a few lines:
as §3

Experiment [14] concerns green foxtail (Setaria viridis L.). The description is as above. Conditions: active ingredient amount 31 g/ha, 14th day after application. The method, boiled down: as §3
In experiment [15] the test system is prickly sida (Sida spinosa L.). Described as above. Conditions: active ingredient amount 31 g/ha, 14th day after application. The method, boiled down:
as §3

The test system of experiment [16] is redroot pigweed (Amaranthus retroflexus L.). The experiment is described as above. Conditions: active ingredient amount 31 g/ha, 14th day after application. In a few lines: as §3
Experiment [17] has as its system rice (Oryza sativa L.). Described as above. Conditions: active ingredient amount 31 g/ha, 14th day after application. The method, boiled down: as §3
Experiment [18] concerns soybean (Glycine max Merr.). The experiment is described as above. Conditions: active ingredient amount 31 g/ha, 14th day after application. The method, boiled down: as §3
The test system of experiment [19] is velvetleaf (Abutilon theophrasti MEDIC.). The description is as above. Conditions: active ingredient amount 31 g/ha, 14th day after application. The method, boiled down:
as §3

The test system of experiment [20] is wheat (Triticum aestivum L.). The description is as above. Conditions: active ingredient amount 31 g/ha, 14th day after application. In a few lines: as §3

On to `C=CCOC(=O)Oc1c(C)nn(C)c(=O)c1-c1cc(Oc2cnc3cc(Cl)ccc3n2)ccc1C` [Compound 3-58], for which the “Growth inhibition rate (%) Barnyardgrass” value in [1] is recorded as 100%; in experiment [11] it was 85%. Also, the “Growth inhibition rate (%) Corn” value in the experiment with corn (Zea mays L.) [2] is 55%; with corn (Zea mays L.) [12], 0%. The “Growth inhibition rate (%) Crabgrass” value was determined as 99% in [3] and 10% in experiment [13]. Also, the “Growth inhibition rate (%) Green foxtail” value in experiment [4] came to 100%; in [14], 75%. Further, in [5], the “Growth inhibition rate (%) Italian ryegrass” value is 99%. The “Growth inhibition rate (%) Redroot pigweed” value in [6] and in [16] was 0% each time. The “Growth inhibition rate (%) Rice” value in the experiment on rice (Oryza sativa L.) [7] was found to be 50%; in the experiment on rice (Oryza sativa L.) [17] it was 0%. The entries for the “Growth inhibition rate (%) Soybean” value in experiment [8] and in [18] were 25% and 0%, respectively. The results for the “Growth inhibition rate (%) Wheat” value in experiment [9] and in experiment [20] were 98% and 0%, respectively. Further, the “Growth inhibition rate (%) Wild oat” value in [10] is 95%. Further, the “Growth inhibition rate (%) Prickly sida” value in [15] stood at 0%. The “Growth inhibition rate (%) Velvetleaf” value in [19] is given as 0%.

Regarding `Cc1ccc(Oc2cnc3cc(Cl)ccc3n2)cc1-c1c(OC(=O)OCCCl)c(C)nn(C)c1=O` [Compound 3-59], the “Growth inhibition rate (%) Barnyardgrass” value in [1] came out at 99%; in experiment [11], 85%. Also, the “Growth inhibition rate (%) Corn” value with corn (Zea mays L.) [2] and in the experiment on corn (Zea mays L.) [12] was 0% each time. In addition, the “Growth inhibition rate (%) Crabgrass” value in [3] was determined as 98%; in [13] it was 0%. The “Growth inhibition rate (%) Green foxtail” value is 100% in [4] and 80% in experiment [14]. Besides, the “Growth inhibition rate (%) Italian ryegrass” value in experiment [5] turned out to be 93%. Moreover, the “Growth inhibition rate (%) Redroot pigweed” value in experiment [6] and in experiment [16] was 0% in each case. In addition, the “Growth inhibition rate (%) Rice” value in the experiment with rice (Oryza sativa L.) [7] and in the experiment with rice (Oryza sativa L.) [17] was 0% each time. The figures for the “Growth inhibition rate (%) Soybean” value in experiment [8] and in experiment [18] were 20% and 0%, respectively. Also, the “Growth inhibition rate (%) Wheat” value in experiment [9] is given as 65%; in experiment [20] it was 0%. For the same compound, in experiment [10], the “Growth inhibition rate (%) Wild oat” value stood at 93%. Besides, the “Growth inhibition rate (%) Prickly sida” value in experiment [15] amounted to 0%. For the same compound, the “Growth inhibition rate (%) Velvetleaf” value in [19] is on record as 0%.

As to `C#CCOC(=O)Oc1c(C)nn(C)c(=O)c1-c1cc(Oc2cnc3cc(Cl)ccc3n2)ccc1C` [Compound 3-64], the “Growth inhibition rate (%) Barnyardgrass” value in experiment [1] and in experiment [11] was 98% throughout. The “Growth inhibition rate (%) Corn” value in the experiment on corn (Zea mays L.) [2] was 50%; in the experiment with corn (Zea mays L.) [12], 0%. In addition, the “Growth inhibition rate (%) Crabgrass” value in experiment [3] is on record as 90%; in experiment [13], 50%. Also, the “Growth inhibition rate (%) Green foxtail” value in experiment [4] came out at 100%; in experiment [14], 93%. Moreover, in experiment [5], the “Growth inhibition rate (%) Italian ryegrass” value is reported as 85%. Besides, the “Growth inhibition rate (%) Redroot pigweed” value in experiment [6] and in [16] was 0% throughout. The “Growth inhibition rate (%) Rice” value in the experiment on rice (Oryza sativa L.) [7] and in the experiment with rice (Oryza sativa L.) [17] was 0% throughout. The “Growth inhibition rate (%) Soybean” value in experiment [8] and in experiment [18] was 0% throughout. For the same compound, the figures for the “Growth inhibition rate (%) Wheat” value in experiment [9] and in [20] were 60% and 0%, respectively. Moreover, the “Growth inhibition rate (%) Wild oat” value in experiment [10] is on record as 83%. In addition, in experiment [15], the “Growth inhibition rate (%) Prickly sida” value is on record as 0%. For the same compound, the “Growth inhibition rate (%) Velvetleaf” value in experiment [19] was 0%.

With `Cc1ccc(Oc2cnc3cc(Cl)ccc3n2)cc1-c1c(OS(=O)(=O)C(F)(F)F)c(C)nn(C)c1=O` [Compound 3-69], the “Growth inhibition rate (%) Barnyardgrass” value is recorded as 100% in experiment [1] and 93% in [11]. The “Growth inhibition rate (%) Corn” value in the experiment on corn (Zea mays L.) [2] is given as 20%; in the experiment on corn (Zea mays L.) [12], 0%. Also, the “Growth inhibition rate (%) Crabgrass” value in experiment [3] worked out at 95%; in experiment [13], 30%. For the same compound, the entries for the “Growth inhibition rate (%) Green foxtail” value in experiment [4] and in experiment [14] were 100% and 95%, respectively. Further, the “Growth inhibition rate (%) Italian ryegrass” value in experiment [5] was determined as 99%. Besides, the “Growth inhibition rate (%) Redroot pigweed” value in experiment [6] and in [16] was 0% each time. The “Growth inhibition rate (%) Rice” value with rice (Oryza sativa L.) [7] is given as 30%; in the experiment with rice (Oryza sativa L.) [17] it was 0%. The “Growth inhibition rate (%) Soybean” value in experiment [8] and in experiment [18] was 0% in each case. Besides, the “Growth inhibition rate (%) Wheat” value in experiment [9] was found to be 98%; in experiment [20], 0%. Moreover, the “Growth inhibition rate (%) Wild oat” value in [10] is on record as 99%. In addition, in [15], the “Growth inhibition rate (%) Prickly sida” value was 0%. Further, in [19], the “Growth inhibition rate (%) Velvetleaf” value is 0%.

Turning to `CCOC(=O)C(=O)Oc1c(C)nn(C)c(=O)c1-c1cc(Oc2cnc3cc(Cl)ccc3n2)ccc1C` [Compound 3-79], the “Growth inhibition rate (%) Barnyardgrass” value in experiment [1] and in [11] was 100% in each case. The “Growth inhibition rate (%) Corn” value with corn (Zea mays L.) [2] was 50%; with corn (Zea mays L.) [12], 0%. The “Growth inhibition rate (%) Crabgrass” value in experiment [3] came to 98%; in experiment [13], 95%. The “Growth inhibition rate (%) Green foxtail” value in experiment [4] and in experiment [14] was 100% in each case. Further, the “Growth inhibition rate (%) Italian ryegrass” value in experiment [5] worked out at 99%. Also, the “Growth inhibition rate (%) Redroot pigweed” value in experiment [6] and in experiment [16] was 0% throughout. Further, the “Growth inhibition rate (%) Rice” value in the experiment on rice (Oryza sativa L.) [7] came to 99%; in the experiment on rice (Oryza sativa L.) [17] it was 0%. The “Growth inhibition rate (%) Soybean” value in experiment [8] came to 30%; in experiment [18], 0%. Also, the “Growth inhibition rate (%) Wheat” value in experiment [9] is 93%; in experiment [20] it was 0%. Moreover, the “Growth inhibition rate (%) Wild oat” value in experiment [10] is reported as 98%. In addition, in [15], the “Growth inhibition rate (%) Prickly sida” value stood at 0%. Besides, the “Growth inhibition rate (%) Velvetleaf” value in [19] was determined as 0%.

On to `C#CC(=O)Oc1c(C)nn(C)c(=O)c1-c1cc(Oc2cnc3cc(Cl)ccc3n2)ccc1C` [Compound 3-82], for which the results for the “Growth inhibition rate (%) Barnyardgrass” value in experiment [1] and in experiment [11] were 100% and 99%, respectively. Besides, the “Growth inhibition rate (%) Corn” value in the experiment on corn (Zea mays L.) [2] is reported as 35%; in the experiment with corn (Zea mays L.) [12] it was 0%. Also, the “Growth inhibition rate (%) Crabgrass” value is on record as 98% in [3] and 85% in experiment [13]. For the same compound, the results for the “Growth inhibition rate (%) Green foxtail” value in [4] and in experiment [14] were 100% and 99%, respectively. Besides, the “Growth inhibition rate (%) Italian ryegrass” value in experiment [5] is reported as 98%. For the same compound, the “Growth inhibition rate (%) Redroot pigweed” value in experiment [6] is 10%; in [16], 0%. Moreover, the “Growth inhibition rate (%) Rice” value with rice (Oryza sativa L.) [7] worked out at 93%; in the experiment with rice (Oryza sativa L.) [17] it was 0%. Also, the “Growth inhibition rate (%) Soybean” value in experiment [8] and in experiment [18] was 0% each time. Also, the entries for the “Growth inhibition rate (%) Wheat” value in [9] and in experiment [20] were 98% and 0%, respectively. Further, the “Growth inhibition rate (%) Wild oat” value in experiment [10] is recorded as 98%. Also, in experiment [15], the “Growth inhibition rate (%) Prickly sida” value is given as 0%. For the same compound, the “Growth inhibition rate (%) Velvetleaf” value in [19] amounted to 0%.
